Results published in ChEMBL document CHEMBL4118074, “Design, synthesis and structure-activity relationship studies of a novel focused library of 2,3,4-substituted oxazolidines with antiproliferative activity against cancer cell lines” (Eur J Med Chem, 2017).
pIC50: −log10 of the molar value.

system: Jurkat; test: Antiproliferative activity against human Jurkat T cells after 48 hrs by MTT assay; assay type: functional, cell-based; conditions: not given

SMILES	pIC50
CC(C)(C)C(=O)N1[C@@H](COc2ccc([N+](=O)[O-])cc2)COC1(C)C	< 4.30
CC(C)(C)CC(=O)N1[C@@H](COc2ccc([N+](=O)[O-])cc2)COC1(C)C	< 4.30
CN1CCN(C(=O)c2ccc(OC[C@H]3COC(C)(C)N3C(=O)OC(C)(C)C)cc2)CC1	< 4.30

system: MDA-MB-231; test: Antiproliferative activity against human MDA-MB-231 cells after 48 hrs by MTT assay; assay type: functional, cell-based; conditions: MDA-MB-231, 48 h

SMILES	pIC50
CC(C)(C)OC(=O)N[C@H](CO)COc1ccc([N+](=O)[O-])cc1	< 4.30
CC(C)(C)C(=O)N1[C@@H](COc2ccc([N+](=O)[O-])cc2)COC1(C)C	< 4.30
CC(C)(C)CC(=O)N1[C@@H](COc2ccc([N+](=O)[O-])cc2)COC1(C)C	< 4.30
CN1CCN(C(=O)c2ccc(OC[C@H]3COC(C)(C)N3C(=O)OC(C)(C)C)cc2)CC1	< 4.30

system: Vero; test: Cytotoxicity against African green monkey Vero cells after 48 hrs by MTT assay; assay type: cell-based; conditions: Chlorocebus sabaeus

SMILES	pIC50
CC(C)(C)OC(=O)N[C@H](CO)COc1ccc([N+](=O)[O-])cc1	< 4.00
CC(C)(C)C(=O)N1[C@@H](COc2ccc([N+](=O)[O-])cc2)COC1(C)C	< 4.00
CC(C)(C)CC(=O)N1[C@@H](COc2ccc([N+](=O)[O-])cc2)COC1(C)C	< 4.00

system: HL-60; test: Antiproliferative activity against human HL60 cells after 48 hrs by MTT assay; assay type: functional, cell-based; conditions: HL-60, 48 h

SMILES	pIC50
CC(C)(C)OC(=O)N[C@H](CO)COc1ccc([N+](=O)[O-])cc1	< 4.30
CC(C)(C)C(=O)N1[C@@H](COc2ccc([N+](=O)[O-])cc2)COC1(C)C	< 4.30
CC(C)(C)CC(=O)N1[C@@H](COc2ccc([N+](=O)[O-])cc2)COC1(C)C	< 4.30
CN1CCN(C(=O)c2ccc(OC[C@H]3COC(C)(C)N3C(=O)OC(C)(C)C)cc2)CC1	< 4.30

system: MCF7; test: Antiproliferative activity against human MCF7 cells after 48 hrs by MTT assay; assay type: functional, cell-based; conditions: MCF7, 48 h

SMILES	pIC50
CC(C)(C)OC(=O)N[C@H](CO)COc1ccc([N+](=O)[O-])cc1	< 4.30
CC(C)(C)C(=O)N1[C@@H](COc2ccc([N+](=O)[O-])cc2)COC1(C)C	< 4.30
CC(C)(C)CC(=O)N1[C@@H](COc2ccc([N+](=O)[O-])cc2)COC1(C)C	< 4.30
CN1CCN(C(=O)c2ccc(OC[C@H]3COC(C)(C)N3C(=O)OC(C)(C)C)cc2)CC1	< 4.30

system: HCT-116; test: Antiproliferative activity against human HCT116 cells after 48 hrs by MTT assay; assay type: functional, cell-based; conditions: HCT-116, 48 h

SMILES	pIC50
CC(C)(C)OC(=O)N[C@H](CO)COc1ccc([N+](=O)[O-])cc1	< 4.30
CC(C)(C)C(=O)N1[C@@H](COc2ccc([N+](=O)[O-])cc2)COC1(C)C	< 4.30
CC(C)(C)CC(=O)N1[C@@H](COc2ccc([N+](=O)[O-])cc2)COC1(C)C	< 4.30
CN1CCN(C(=O)c2ccc(OC[C@H]3COC(C)(C)N3C(=O)OC(C)(C)C)cc2)CC1	< 4.30
